In experiment [1] the test system is SARS-COV-2 variants (alpha, beta, gamma, delta, BA.1, BA.2) and USA-WA1/2020. The format is cell-based. The note with it: 10 μM, 48 hours, A549-ACE2+ cells.
Experiment [2] has the same test system. The experiment is classed as cell-based. The note with it: 10 μM, 48 hours, A549-ACE2+ cells. This is another data set of the same source.

Data on one molecule can be found in patent US20250367185A1, “TRANSLESION SYNTHESIS POLYMERASE INHIBITORS AND USES THEREOF” (THE UNIVERSITY OF VERMONT AND STATE AGRICULTURAL COLLEGE, priority 2022, published 2025).

In the case of `CC(C)CC(=O)c1c(Nc2ccc(C(=O)O)cc2Cl)[nH]c2c(Cl)ccc([N+](=O)[O-])c2c1=O` [Compound 1, 3-chloro-4-((8-chloro-3-(3-methylbutanoyl)-5-nitro-4-oxo-1,4-dihydroquinolin-2-yl)amino)benzoic acid], the “percentage of viral nucleocapsid-positive cells” value in experiment [1] is recorded as “reduces”. In experiment [2], the “viral mRNA levels” value is on record as “reduces”.
